Data: PubChem BioAssay (NCI)
Values after ≈ are worked out from the molar mass of the structure shown.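 Dose response: 5 concentrations. Exposure: 48 h. Format: 96-well plates. Endpoint: linear interpolation; highest concentration if not reached. GI50 = concentration required for 50% inhibition of growth. The concentration for full growth arrest is given as TGI.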

How the values were obtained:
Test in all cases: NCI anticancer screen, dose series, 48 h
786-0 renal = test system: 786-0 renal
A498 renal = test system: A498 renal
A549 NSCLC = test system: A549 NSCLC
ACHN renal = test system: ACHN renal
BT-549 breast = test system: BT-549 breast
CAKI-1 renal = test system: CAKI-1 renal
CCRF-CEM leukemia = test system: CCRF-CEM leukemia
COLO 205 colon = test system: COLO 205 colon
DU-145 prostate = test system: DU-145 prostate
EKVX NSCLC = test system: EKVX NSCLC
HCC-2998 colon = test system: HCC-2998 colon
HCT-116 colon = test system: HCT-116 colon
HCT-15 colon = test system: HCT-15 colon
HL-60(TB) leukemia = test system: HL-60(TB) leukemia
HOP-62 NSCLC = test system: HOP-62 NSCLC
HT29 colon = test system: HT29 colon
IGROV1 ovarian = test system: IGROV1 ovarian
K-562 leukemia = test system: K-562 leukemia
KM12 colon = test system: KM12 colon
LOX IMVI melanoma = test system: LOX IMVI melanoma
M14 melanoma = test system: M14 melanoma
MALME-3M melanoma = test system: MALME-3M melanoma
MCF7 breast = test system: MCF7 breast
MDA-MB-231 breast = test system: MDA-MB-231 breast
MDA-MB-435 = test system: MDA-MB-435
MOLT-4 leukemia = test system: MOLT-4 leukemia
NCI-H226 lung = test system: NCI-H226 lung
NCI-H23 lung = test system: NCI-H23 lung
NCI-H460 lung = test system: NCI-H460 lung
NCI-H522 lung = test system: NCI-H522 lung
NCI/ADR-RES ovarian = test system: NCI/ADR-RES ovarian
OVCAR-3 ovarian = test system: OVCAR-3 ovarian
OVCAR-4 ovarian = test system: OVCAR-4 ovarian
OVCAR-5 ovarian = test system: OVCAR-5 ovarian
OVCAR-8 ovarian = test system: OVCAR-8 ovarian
PC-3 prostate = test system: PC-3 prostate
RXF 393 renal = test system: RXF 393 renal
SF-268 CNS = test system: SF-268 CNS
SF-295 CNS = test system: SF-295 CNS
SF-539 CNS = test system: SF-539 CNS
SK-MEL-2 melanoma = test system: SK-MEL-2 melanoma
SK-MEL-28 melanoma = test system: SK-MEL-28 melanoma
SK-MEL-5 melanoma = test system: SK-MEL-5 melanoma
SK-OV-3 ovarian = test system: SK-OV-3 ovarian
SN12C renal = test system: SN12C renal
SNB-19 CNS = test system: SNB-19 CNS
SNB-75 CNS = test system: SNB-75 CNS
SW-620 colon = test system: SW-620 colon
TK-10 renal = test system: TK-10 renal
U251 CNS = test system: U251 CNS
UACC-257 melanoma = test system: UACC-257 melanoma
UO-31 renal = test system: UO-31 renal
SR leukemia = test system: SR leukemia

## c1ccc(Nc2nnc(CCCCCCCCc3nnc(Nc4ccccc4)o3)o2)cc1
786-0 renal
  TGI: > 100 µM
A498 renal
  TGI: > 100 µM
A549 NSCLC
  TGI: > 100 µM
ACHN renal
  TGI: > 100 µM
BT-549 breast
  TGI: > 100 µM
CAKI-1 renal
  TGI: > 100 µM
CCRF-CEM leukemia
  TGI: > 100 µM
COLO 205 colon
  TGI: > 100 µM
DU-145 prostate
  TGI: > 100 µM
EKVX NSCLC
  TGI: > 100 µM
HCC-2998 colon
  TGI: > 100 µM
HCT-116 colon
  TGI: > 100 µM
HCT-15 colon
  TGI: > 100 µM
HL-60(TB) leukemia
  TGI: > 100 µM
HOP-62 NSCLC
  TGI: > 100 µM
HT29 colon
  TGI: > 100 µM
IGROV1 ovarian
  TGI: > 100 µM
K-562 leukemia
  TGI: > 100 µM
KM12 colon
  TGI: > 100 µM
LOX IMVI melanoma
  TGI: > 100 µM
M14 melanoma
  TGI: > 100 µM
MALME-3M melanoma
  TGI: > 100 µM
MCF7 breast
  TGI: > 100 µM
MDA-MB-231 breast
  TGI: > 100 µM
MDA-MB-435
  TGI: > 100 µM
MOLT-4 leukemia
  TGI: > 100 µM
NCI-H226 lung
  TGI: > 100 µM
NCI-H23 lung
  TGI: > 100 µM
NCI-H460 lung
  TGI: > 100 µM
NCI-H522 lung
  TGI: > 100 µM
NCI/ADR-RES ovarian
  TGI: > 100 µM
OVCAR-3 ovarian
  TGI: > 100 µM
OVCAR-4 ovarian
  TGI: > 100 µM
OVCAR-5 ovarian
  TGI: > 100 µM
OVCAR-8 ovarian
  TGI: > 100 µM
PC-3 prostate
  TGI: > 100 µM
RXF 393 renal
  TGI: > 100 µM
SF-268 CNS
  TGI: > 100 µM
SF-295 CNS
  TGI: > 100 µM
SF-539 CNS
  TGI: > 100 µM
SK-MEL-2 melanoma
  TGI: > 100 µM
SK-MEL-28 melanoma
  TGI: > 100 µM
SK-MEL-5 melanoma
  TGI: > 100 µM
SK-OV-3 ovarian
  TGI: > 100 µM
SN12C renal
  TGI: > 100 µM
SNB-19 CNS
  TGI: > 100 µM
SNB-75 CNS
  TGI: > 100 µM
SW-620 colon
  TGI: > 100 µM
TK-10 renal
  TGI: > 100 µM
U251 CNS
  TGI: > 100 µM
UACC-257 melanoma
  TGI: > 100 µM
UO-31 renal
  TGI: > 100 µM

## COc1cccc(CC2C(=O)NC(=O)NC2=O)c1
SR leukemia
  GI50: 39.5 µg/mL (≈ 159 µM)
